# Source: patent publication US20260226493A1, “HERBICIDE RESISTANT PLANTS” (SYNGENTA CROP PROTECTION AG, priority 2023, published 2026)
# Legend:
# [1] = target: T1, Arabidopsis thaliana BioDA variant enzymes (Arabidopsis thaliana, UniProt B0F481); assay: biochemical; settings: WT Arabidopsis thaliana BioDA (SEQ ID NO 294); read-out: IC50
# T1 construct: with the predicted N-terminal mitochondrial transit peptide removed; 6xHis-tag (N); thrombin cleavage site (N); made in house; host or cells: E. coli BL21 (DE3) bioA
# Method: (§1) These plasmids were then expressed in E. coli BL21 (DE3) bioA with 50 μg/mL kanamycin and 25 μg/mL chloramphenicol selection. Overnight cultures grown at 37° C. were used to inoculate 8×500 mL AIM in shake flasks at a ratio of 1:100. Cultures were grown at 37° C., 200 rpm for 3.5 hours and then overnight at 20° C. Cells were harvested by centrifugation for 30 minutes at 10 000 g. Cells were stored at −80° C. until extraction. 30 g of cell pellet from was thawed in 120 mL of IMAC buffer A (20 mM HEPES pH7.5, 25 mM imidazole, 500 mM sodium chloride, 0.15 mM pyridoxal phosphate, 0.5 mM TCEP, 1× complete Protease Inhibitor Tablet (Roche)). The resuspension was passed through a cell disrupter at 18 000 PSI and centrifuged at 50 000 g for 25 minutes at 4° C. The His-tagged BIO3-BIO1 protein was purified from the extract supernatant on an AKTA avant chromatography system (Cytiva) using a HisTrap FF column and eluted in IMAC buffer B ((20 mM HEPES pH7.5, 500 mM imidazole, 500 mM sodium chloride, 0.15 mM pyridoxal phosphate, 0.5 mM TCEP) followed by SEC using a HiLoad 26/60 Superdex200 column in SEC buffer (25 mM HEPES pH7.5, 150 mM sodium chloride, 0.15 mM pyridoxal phosphate, 0.5 mM TCEP). Protein concentration was measured and calculated using the absorbance at 280 nm. Extracts were diluted 1 in 4 and 10 uL was analysed by SDS PAGE.
# (§2) To measure BIO3-BIO1 mutant enzyme activity in the presence of herbicide, herbicides were incubated with 20 μL of enzyme mix (100 mM EPPS pH 8.6, 0.1 mM pyridoxal phosphate, 0.1 mg/mL BSA, 50 nM BIO3-BIO1 enzyme) for 10 minutes at 20° C. in a well of a 96-well half-area black plate, followed by the addition of 20 μL of substrate mix (final concentration of 100 mM EPPS pH 8.6, 0.1 mM pyridoxal phosphate, 0.1 mg/mL BSA, 100 μM spermidine, 20 μM KAPA, 100 mM NaCO3) and further incubation for 75 minutes at 20° C. The reaction was terminated by the addition of 50 μL of derivatisation mix (final concentration of 250 mM borate NaOH pH 9.4, 3.6 mM o-phthalaldehyde, 7 mM β-mercaptoethanol, 17% (v/v) ethanol, 3.6% (v/v) methanol). The fluorescent product produced by the reaction of DAPA with o-phthalaldehyde and 7 mM β-mercaptoethanol was measured at 470 nm after excitation at 410 nm.
# (§3) For IC50 calculations, appropriate dose responses of compounds L, M, B, K and G were used. Calculated percentage inhibitions were then input into GraphPad Prism 7 and IC50s calculated using the non-linear regression (vs. normalised response) equation.
# [2] = target: T2, Arabidopsis thaliana BioDA variant enzymes (Arabidopsis thaliana, UniProt B0F481, C388D); assay: biochemical
# T2 construct: with the predicted N-terminal mitochondrial transit peptide removed; 6xHis-tag (N); thrombin cleavage site (N); made in house; host or cells: E. coli BL21 (DE3) bioA
# Method: as §1, §2, §3
# [3] = tested on: D4539 (Escherichia coli MTP BioA) containing tobacco plants; assay: Visual herbicide damage score on transgenic tobacco D4539 (pBin TMV MTP EcBioA); format: in vivo; settings: 600 gai/ha
# Excerpt: In order to determine if the overexpressed gene detailed in Example 3 confers resistance to BIO3-BIO1 inhibiting compounds when expressed in plants, GM tobacco lines were produced and tested with BIO3-BIO1 inhibiting compounds. Transgenic tobacco plants expressing the Escherichia coli BioA gene with (SEQ ID NO:203) and without a mitochondrial signal peptide (SEQ ID NO: 202).
# Populations of transgenic tobacco comprising 20-30 transgenic events per plant transformation constructs were generated as described in Example 1. These lines were clonally propagated and 1 clone per event was sprayed with 600 g ai/ha compound L or A+0.2% Genapol X080 with a spray volume of 200 L/Ha (“g ai/ha” refers to grams of active compound per hectare).
# […] A score of 0 indicates no visible damage or stunting whereas a score of 100 indicates a complete death of the plant. 20 transgenic events (i.e. individual transgenic plants) from each GM tobacco line were transplanted to soil 1 week prior to spraying with BIO3-BIO1 inhibiting compounds. WT tobacco was included as a control.
# T2 sequence (B0F481 24-833 C388D): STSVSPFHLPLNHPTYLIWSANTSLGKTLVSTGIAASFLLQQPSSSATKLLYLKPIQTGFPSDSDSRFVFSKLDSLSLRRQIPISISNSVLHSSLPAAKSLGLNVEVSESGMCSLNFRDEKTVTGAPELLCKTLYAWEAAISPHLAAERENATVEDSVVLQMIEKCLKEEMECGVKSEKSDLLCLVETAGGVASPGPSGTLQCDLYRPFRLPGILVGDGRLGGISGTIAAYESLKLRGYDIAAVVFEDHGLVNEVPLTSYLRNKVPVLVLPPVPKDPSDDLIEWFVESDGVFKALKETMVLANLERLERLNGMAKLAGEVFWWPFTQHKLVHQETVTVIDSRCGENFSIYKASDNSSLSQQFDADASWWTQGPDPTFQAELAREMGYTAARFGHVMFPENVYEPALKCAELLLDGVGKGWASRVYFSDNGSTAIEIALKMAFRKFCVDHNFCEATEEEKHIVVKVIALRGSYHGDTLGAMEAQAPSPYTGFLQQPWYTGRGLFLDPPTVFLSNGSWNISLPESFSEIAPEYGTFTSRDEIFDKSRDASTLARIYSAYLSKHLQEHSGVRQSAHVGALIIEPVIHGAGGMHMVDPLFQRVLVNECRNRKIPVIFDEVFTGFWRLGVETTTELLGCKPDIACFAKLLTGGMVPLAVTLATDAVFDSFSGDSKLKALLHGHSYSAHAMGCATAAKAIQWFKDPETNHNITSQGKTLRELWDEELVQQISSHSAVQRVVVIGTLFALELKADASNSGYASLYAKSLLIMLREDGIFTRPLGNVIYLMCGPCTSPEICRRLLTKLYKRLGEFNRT
structure (smiles),measurement,setting,value
"CC(O)C(N)CCCCC(=O)O.Cl (centres unmarked) [Compound B, [5-carboxy-1-(1-hydroxyethyl)pentyl]ammonium chloride]",IC50,[1],2.81 µM
same,IC50,[2],29.2 µM
"CCOC(=O)c1nn(-c2ccc3c(c2)OC(F)(F)C(F)(F)O3)c2cccc(C(C)=O)c2c1=O [Compound A, ethyl 5-acetyl-4-oxo-1-(2,2,3,3-tetrafluoro-1,4-benzodioxin-6-yl)cinnoline-3-carboxylate]",percentage of damage (herbicide damage score),"[3]; D4539 event 8385, 7 DAT",5%
same,percentage of damage (herbicide damage score),"[3]; D4539 event 8385, 14 DAT",0%
same,percentage of damage (herbicide damage score),"[3]; D4539 event 8385, 21 DAT",0%
same,percentage of damage (herbicide damage score),"[3]; D4539 event 8386, 7 DAT",3%
same,percentage of damage (herbicide damage score),"[3]; D4539 event 8386, 14 DAT",0%
same,percentage of damage (herbicide damage score),"[3]; D4539 event 8386, 21 DAT",0%
same,percentage of damage (herbicide damage score),"[3]; D4539 event 8399, 7 DAT",2%
same,percentage of damage (herbicide damage score),"[3]; D4539 event 8399, 14 DAT",0%
same,percentage of damage (herbicide damage score),"[3]; D4539 event 8399, 21 DAT",0%
same,percentage of damage (herbicide damage score),"[3]; D4539 event 8402, 7 DAT",2%
same,percentage of damage (herbicide damage score),"[3]; D4539 event 8402, 14 DAT",0%
same,percentage of damage (herbicide damage score),"[3]; D4539 event 8402, 21 DAT",0%
same,percentage of damage (herbicide damage score),"[3]; D4539 event 8414, 7 DAT",7%
same,percentage of damage (herbicide damage score),"[3]; D4539 event 8414, 14 DAT",30%
same,percentage of damage (herbicide damage score),"[3]; D4539 event 8414, 21 DAT",35%
same,percentage of damage (herbicide damage score),"[3]; D4539 event 8415, 7 DAT",7%
same,percentage of damage (herbicide damage score),"[3]; D4539 event 8415, 14 DAT",0%
same,percentage of damage (herbicide damage score),"[3]; D4539 event 8415, 21 DAT",0%
same,percentage of damage (herbicide damage score),"[3]; D4539 event 8417, 7 DAT",2%
same,percentage of damage (herbicide damage score),"[3]; D4539 event 8417, 14 DAT",5%
same,percentage of damage (herbicide damage score),"[3]; D4539 event 8417, 21 DAT",10%
same,percentage of damage (herbicide damage score),"[3]; D4539 event 8418, 7 DAT",4%
same,percentage of damage (herbicide damage score),"[3]; D4539 event 8418, 14 DAT",10%
same,percentage of damage (herbicide damage score),"[3]; D4539 event 8418, 21 DAT",20%
same,percentage of damage (herbicide damage score),"[3]; D4539 event 8423, 7 DAT",2%
same,percentage of damage (herbicide damage score),"[3]; D4539 event 8423, 14 DAT",20%
same,percentage of damage (herbicide damage score),"[3]; D4539 event 8423, 21 DAT",30%
same,percentage of damage (herbicide damage score),"[3]; D4539 event 8424, 7 DAT",55%
same,percentage of damage (herbicide damage score),"[3]; D4539 event 8424, 14 DAT",80%
same,percentage of damage (herbicide damage score),"[3]; D4539 event 8424, 21 DAT",85%
same,percentage of damage (herbicide damage score),"[3]; D4539 event 8426, 7 DAT",2%
same,percentage of damage (herbicide damage score),"[3]; D4539 event 8426, 14 DAT",0%
same,percentage of damage (herbicide damage score),"[3]; D4539 event 8426, 21 DAT",0%
same,percentage of damage (herbicide damage score),"[3]; D4539 event 8433, 7 DAT",4%
same,percentage of damage (herbicide damage score),"[3]; D4539 event 8433, 14 DAT",0%
same,percentage of damage (herbicide damage score),"[3]; D4539 event 8433, 21 DAT",0%
same,percentage of damage (herbicide damage score),"[3]; D4539 event 8434, 7 DAT",4%
same,percentage of damage (herbicide damage score),"[3]; D4539 event 8434, 14 DAT",5%
same,percentage of damage (herbicide damage score),"[3]; D4539 event 8434, 21 DAT",15%
same,percentage of damage (herbicide damage score),"[3]; D4539 event 8438, 7 DAT",10%
same,percentage of damage (herbicide damage score),"[3]; D4539 event 8438, 14 DAT",75%
same,percentage of damage (herbicide damage score),"[3]; D4539 event 8438, 21 DAT",65%
same,percentage of damage (herbicide damage score),"[3]; D4539 event 8439, 7 DAT",2%
same,percentage of damage (herbicide damage score),"[3]; D4539 event 8439, 14 DAT",10%
same,percentage of damage (herbicide damage score),"[3]; D4539 event 8439, 21 DAT",0%
same,percentage of damage (herbicide damage score),"[3]; D4539 event 8447, 7 DAT",2%
same,percentage of damage (herbicide damage score),"[3]; D4539 event 8447, 14 DAT",0%
same,percentage of damage (herbicide damage score),"[3]; D4539 event 8447, 21 DAT",0%
same,percentage of damage (herbicide damage score),"[3]; D4539 event 8448, 7 DAT",2%
same,percentage of damage (herbicide damage score),"[3]; D4539 event 8448, 14 DAT",0%
same,percentage of damage (herbicide damage score),"[3]; D4539 event 8448, 21 DAT",0%
same,percentage of damage (herbicide damage score),"[3]; D4539 event 8460, 7 DAT",3%
same,percentage of damage (herbicide damage score),"[3]; D4539 event 8460, 14 DAT",0%
same,percentage of damage (herbicide damage score),"[3]; D4539 event 8460, 21 DAT",0%
same,percentage of damage (herbicide damage score),"[3]; D4539 event 8461, 7 DAT",15%
same,percentage of damage (herbicide damage score),"[3]; D4539 event 8461, 14 DAT",80%
same,percentage of damage (herbicide damage score),"[3]; D4539 event 8461, 21 DAT",85%
same,percentage of damage (herbicide damage score),"[3]; D4539 event 8462, 7 DAT",2%
same,percentage of damage (herbicide damage score),"[3]; D4539 event 8462, 14 DAT",0%
same,percentage of damage (herbicide damage score),"[3]; D4539 event 8462, 21 DAT",0%
